Source: patent publication US20250171762A1, “THERAPEUTICAL PEPTIDOMIMETIC” (UNIVERSITA' DEGLI STUDI DI ROMA "LA SAPIENZA", priority 2021, published 2025)
“Also recorded” adds a separate entry of the source. Non-standard residues stand in square brackets, D forms with d. Residues, ends and D or L forms follow the SMILES beside them. No end group written: not given here.

Columns and labels:
[1] = test system: m·3243A>G mutant cybrids, m·8344A>G mutant cybrids and healthy control cells; assay: Mitochondrial ToxGlo Assay (cyto- and mitotoxicity)
Experimental: Images show the effect of increasing PMT concentrations on healthy and mutant cells, compared with the effect of a cytotoxic (C1) and a mitotoxic (C2) agent, evaluated using the Mitochondrial ToxGlo™ Assay.
The X and Y axis show the compounds incubated with cells and the ratio between fluorescent and luminescent signal, respectively. In this assay, fluorescence increase indicates a decrease in cell membrane integrity, and luminescence decrease indicates a decrease in cellular ATP levels. […] The horizontal black line represents fluorescence/luminescence signal ratio of untreated cells. WT: wild type; 3243: cells bearing the mutation m·3243A>G in mt-tRNA^Leu(UUR); L-8344 and H-8344: cells bearing low and high load of mutation m·8344A>G in mt-tRNA^Lys.
Cybrids were plated on a 96-well plate in normal growth conditions (i.e., glucose medium) and treated with different PMT concentrations. […] Fluorescence and luminescence were measured with a GloMax Multi+Luminometer. […]
Mitochondrial toxicity exerted by PMT was measured using the Mitochondrial ToxGlo™ Assay (Promega Italia Srl., Milano, Italy) according to the manufacturer's protocol. […] Subsequently, cells were incubated with specific reagents and fluorescence or luminescence were measured with a GloMax Multi+Luminometer (Promega Italia Srl., Milano, Italy).

[2] = Plasma stability: incubation in human plasma, UPLC-MS quantification; type: in vitro ADME; details: for plasma stability compared with another peptide: human plasma, FIG. 4; for degradation in human plasma: no time stated
Experimental: Panel B. Time course decay of β32_33, PMT, PMT-8a and PMT-8b incubated up to 72 h with human plasma from four healthy subjects. […] The Y axis indicates the signal intensity of the four peptides. Samples of plasma were obtained from healthy volunteers and immediately used for the analysis. Either β32_33 peptide or PMT for the experiment in panel A, and β32_33 peptide, PMT, PMT-8a or PMT-8b for the experiment in panel B, was incubated in plasma at a final concentration of 0.2 mM, at 37° C., up to 3 h (A) or 72 h (B). At the indicated time points, i.e., T0 and 3 h (A) or T0, 1.5, 3, 6 and 72 h (B), aliquots of 200 μL were treated with 3 volumes of acetonitrile containing 1% formic acid and extracted by a solid phase extraction system to remove proteins and phospholipids. Samples were dried under vacuum, resuspended in 100 μL of 0.1% formic acid containing 5% acetonitrile, and analyzed with a Water Acquity H-Class UPLC system equipped with a single-quadruple mass detector with electrospray ionization source. Samples were separated onto a reverse phase C18 column by performing a gradient with two mobile phases consisting of 0.1% formic acid in water and 0.1% formic acid in acetonitrile at a flow rate of 0.5 mL/min. Quantification was performed by Selected lon Recording (SIR): at m/z=917.88, corresponding to the [M+2 H]^2+ion obtained from either β32_33 or PMT; at m/z=961.42, corresponding to the [M+H]^+ion obtained from PMT-8a; and at m/z=869.48, corresponding to the [M+H]^+ion obtained from PMT-8b.
In order to evaluate whether compounds (βp and d-βp) are stable in blood or hydrolyzed by plasma peptidases, we set up a chromatographic assay to evaluate compound concentration after incubation in human plasma.
Blood was drawn by venipuncture in vacutainer containing EDTA as an anticoagulant.
Two different samples from healthy volunteers were used. Plasma was separated by centrifugation and immediately used for the experiments. Each compound was dissolved in 500 uL plasma at a final concentration of 0.2 mM, and split into two aliquots, one of which was immediately analyzed to assess the basal compound level; the other was incubated at 37° C. for 3 hours under gentle shaking. In order to perform chromatographic analysis the samples were treated with 3 volumes of acetonitrile containing 1% formic acid, and then extracted by using the Ostro™ pass-through sample preparation system to remove proteins and phospholipids. Samples were dried under vacuum and then resuspended in 100 uL of 0.1% formic acid containing 5% acetonitrile, then directly injected onto the chromatographic column.
Chromatographic analyses were performed on a Water Acquity H-Class UPLC system (Waters, Milford, MA, USA), including a quaternary solvent manager (QSM), a sample manager with a flow through needle system (FTN), a photodiode array detector (PDA) and a single-quadruple mass detector with electrospray ionization source (ACQUITY QDa). Analyses were performed on a reverse phase C18 column (75 mm×3.2 mm i.d., 2.5 μm particle size). The mobile phase was solvent A, 0.1% formic acid in water, and solvent B, 0.1% formic acid in acetonitrile. The flow rate was 0.5 mL/min, the column temperature was set at 25° C. and the elution was performed by linearly increasing the concentration of solvent B up to 70% in 7 minutes. Mass spectrometric detection was performed in the positive electrospray ionization mode, using nitrogen as the nebulizer gas. Analyses were performed in the Total lon Current (TIC) mode with a mass range of 100-1200 m/z. The capillary voltage was 0.8 kV, cone voltage 8 V, ion source temperature 120° C. and probe temperature 600° C. Quantification of each compound was performed by Selected lon Recording (SIR) at m/z 917.88, corresponding to the […]

[3] = test system: m·3243A>G mt-tRNA^Leu(UUR) mutant cybrids; assay: Cell viability, Trypan blue dye exclusion, galactose vs glucose medium; type: cell-based, human; details: 5 μM, galactose medium, 24 hours
Experimental: For viability assessment, cells were plated in either glucose or galactose medium. The reason for this is that a viability phenotype can be appreciated in cells growing on galactose, which forces cells to rely on mitochondrial respiration, but not in cells growing on glucose. After 24 hours incubation, the number of viable cells in the galactose medium was normalized to the number of viable cells in glucose at the same time point, which represents the normal growth condition. Data are compared with the value of mutant cells incubated with vehicle only. Mean±SEM of at least three independent experiments is shown.
For viability assessment, cells were plated in either glucose or galactose medium. The reason for this is that a viability phenotype can be appreciated in cells growing on galactose, which forces cells to rely on mitochondrial respiration, but not in cells growing on glucose. After 24 hours incubation the number of viable cells in galactose medium was normalized to the number of viable cells in glucose (that represents the normal growth condition) at the same time point. Data are compared with the value of mutant cells incubated with vehicle only. Means±SEM of at least two independent experiments are shown.
Previously established osteosarcoma derived (143B.TK-) cybrid cell lines from patients, which bear either the m·3243A>G mutation in mt-tRNA^Leu(UUR) or the m·8344A>G mutation in mt-tRNA^Lys, and controls were used (generous gift from Dr Valeria Tiranti and Dr Valerio Carelli).
Cybrid cells were cultured in Dulbecco's modified Eagle's medium (DMEM), supplemented with 4.5 g/l d-glucose, 10% foetal bovine serum (FBS), 2 mM I-glutamine, 50 μg/ML uridine, 100 U/mL penicillin, and […] (referred to as glucose medium) in a humidified atmosphere of 95% air and 5% CO2 at 37° C. For cell viability experiments, cells were grown either in glucose medium or in glucose-free DMEM, supplemented with 5 mM galactose, […] sodium pyruvate, and 10% FBS (referred to as galactose medium). The reason for using the latter medium is that a pathological phenotype can be appreciated in cells growing on galactose, which forces cells to rely on mitochondrial respiration, but not in cells growing on glucose.
[…] Cells were switched in glucose or galactose and after 24 hours cell viability was measured by the Trypan blue dye exclusion assay. Cells were harvested with 0.25% trypsin and 0.2% EDTA, washed, suspended in PBS in the presence of Trypan blue solution (Sigma-Aldrich) at 1:1 ratio and counted using a hemocytometer. The number of viable cells in galactose medium was expressed as a percentage of the number of cells in glucose medium.
(§1) To evaluate the effect of the compounds on viability, cybrids were grown in glucose-free medium supplemented with galactose (galactose medium), a condition that both forces cells to rely on the mt respiratory chain for ATP synthesis and causes a significant growth reduction in the presence of mutations.
as §1, with “PMT and M-PMT” for “the compounds”

[4] = test system: cybrids bearing the m·3243A>G mutation in mt-tRNA^Leu(UUR); assay: Fluorescence confocal microscopy of Cy5-linked constructs, uptake and mitochondrial co-localization; type: cell-based, human; details: 0.25 μM, 24 hours, Mitotracker Red
Text: Top row (constructs): exogenously administered constructs covalently linked to a fluorescent dye (Cy5) are localized within cells.
Middle row (Mitotracker red): mitochondria within the same cells shown in the top row are highlighted by Mitotracker red, a dye able to link specifically and exclusively to mitochondria.
The cells used for the experiments are trans-mitochondrial hybrids (hereafter named cybrids) bearing the m·3243A>G mutation in mt-tRNA^Leu(UUR), which is associated with the MELAS syndrome.
Cells were incubated for 24 hours with 0.25 μM of constructs. Half an hour before imaging, cells were stained with Mitotracker Red. Finally, fluorescence signals were detected with a laser scanning confocal microscope. PCC: Pearson's Correlation Coefficient (mean±SEM of six images).
Constructs made of compounds listed in Table 1 linked to the Cy5 fluorophore via maleimide cross-linker, were administered to sub-confluent cybrid cell cultures at 0.25 μM in glucose medium. […] The fluorescence images were analyzed with the ImageJ software (14, https://imagej.nih.gov/ij/, 1997-2018) to determine the Pearson's correlation coefficient.
The uptake and localization of Cy5-conjugated constructs in cybrids was assessed by flow cytometry, confocal microscopy, and immunoblot analysis on isolated mitochondria (FIG. 1). […]

Compound | effect on fluorescence and luminescence (positive controls) ([1]; 400 μg/ml digitonin (C1) or 100 μl sodium azide (C2), three hours) | plasma stability compared with another peptide [2] | remaining at 72 h, 0.2 mM ([2]; human, human plasma from healthy volunteers, second experiment, plasma of four healthy volunteers, 72 h, read-out: peptide present after incubation in plasma) [%] | degradation in human plasma [2] | viability of mutant cybrids vs non treated mutant cells [3] | penetration of cell membranes and co-localization with mitochondria [4] | detectable degradation in plasma ([2]; second experiment, plasma of four healthy volunteers, up to 72 h) | cyto- and mito-toxicity ([1]; 5, 10, 20 μM (up to 20 μM), mutant and wild-type cells)
[N-]=[N+]=[N-] [sodium azide, reference compound] | a decrease in luminescence and has no effect on fluorescence |  |  |  |  |  |  | 
CC[C@@H](C)[C@@H](NC(=O)[C@@H](CC(C)C)NC(=O)[C@@H](C)NC(=O)[C@H](NC(=O)[C@@H](CCCNC(=N)N)NC(=O)[C@H]1CCCN1C(=O)[C@@H](CO)NC(=O)[C@H](N)CC(C)C)[C@H](C)O)C(=O)O [PMT-8b, d(L)d(S)d(P)d(R)d(T)d(A)d(L)d(I)] (H-[dL][dS][dP][dR][dT][dA][dL][dI]-OH; N-terminus and C-terminus assumed) |  | even more stable than the full-length 16-residue long PMT; also recorded: slower degradation than the β32_33 peptide | 80 | does not undergo degradation at all | significantly improved | Penetrate Cell Membranes and Co-Localize with Mitochondria |  | 
d(K)d(K)d(S)d(F)d(L)d(S)d(P)d(R) ([dK][dK][dS][dF][dL][dS][dP][dR]) [PMT-8a, PMT fragment comprising PMT residues 1-8] |  | even more stable than the full-length 16-residue long PMT; also recorded: slower degradation than the β32_33 peptide |  | does not undergo degradation at all |  | Penetrate Cell Membranes and Co-Localize with Mitochondria | did not undergo detectable degradation | neither cytotoxic nor mitotoxic
